Laboratory results: patent US10927139B2, “Chemically cleavable group” (Tagworks Pharmaceuticals B.V., priority 2012, dated 2021)

Assays:
[1] = Tetrazine-induced release of bead-bound radioactivity from streptavidin beads loaded with 125I-Rtx-TCO-biotin; details: beads with 21 μg ^125I-Rtx-TCO-biotin/mg; 1.5×10^3 eqs tetrazine; 1 hour at room temperature; gamma counting
Description: The bead suspension containing 21 μg ^125I-Rtx-TCO-biotin/mg beads (1 mL in PBS) was divided in two aliquots and reacted with a large excess of 3,6-dimethyl-1,2,4,5-tetrazine (8, 1.5×10^3 eqs with respect to Rtx) in DMSO (5 μL) or with DMSO alone (control) and incubated for 1 hour at room temperature on a roller bench. […] SDS-PAGE confirmed that the activity in the supernatant was due to the release of ^125I-Rtx from the beads (FIG. 4), thus confirming cleavage of the Rtx-TCO-biotin linker upon reaction with the 3,6-dimethyl-1,2,4,5-tetrazine.

[2] = Tetrazine-induced doxorubicin release from Axial-TCO-1-Doxorubicin in PBS/MeCN (LCMS); details: 10 equiv. tetrazine; 25% MeCN in PBS; 37° C.; LCMS at 4 h (n = 3)
Description: PBS/MeCN (1 mL, 3/1), preheated at 37° C. and TCO-2-doxorubicin (10 μL of a 2.5 mM solution in DMSO, 1 eq.) were added to a preheated injection vial. Tetrazine (10 μL of a 25 mM solution in DMSO, 10 eq.) was added and the vial was vortexed. After incubation for 1 hour at 37° C., the vial was placed in LC-MS autosampler at 10° C. LC-MS analysis was performed using a 5% to 100% H2O/MeCN gradient over 11 minutes with a C18 reverse-phase column at 35° C. A control sample containing only TCO-2-doxorubicin (1 eq), as well as a sample containing only doxorubicin (1 eq.), was analyzed under the same conditions. All tetrazine containing samples were measured twice and the doxorubicin control sample was run after every three other samples during an overnight program. […] The calculated percentage of release was corrected when it was observed that the TCO-2-doxorubicin was not fully converted to inv-DA adduct(s). This was done by quantification of remaining dox-TCO, but full conversion was almost always observed. Peak areas (used for doxorubin quantification) were determined at λ=470-500 nm where characteristic doxorubicin absorption takes place and peak integration was done by hand.
(§1) In a similar fashion as Example 3, the release of doxorubicin from TCO-1-doxorubucin as induced by tetrazines 1, 8, 9 in PBS/ACN and in serum was measured.

[3] = Tetrazine-induced doxorubicin release from Axial-TCO-1-Doxorubicin in serum; set-up: species or system mouse; details: 10 equiv. tetrazine; 50% serum; 37° C.; LCMS at 4 h (n = 3)
Description: as §1
Serum experiments were conducted as follows:
TCO-1-doxorubucin (6.25×10^−8 mol) was dissolved in DMSO (0.050 mL), and PBS (0.475 mL) was added slowly in aliquots of 0.010 mL, followed by mouse serum (0.475 mL). A portion of this mixture (0.200 mL) was equilibrated at 37° C., and a solution of tetrazine (1.25×10^−7 mol) in DMSO (0.005 mL) was added, and the solution was thoroughly mixed and incubated at 37° C. in the dark for 4 h. Subsequently, cold MeCN (0.200 mL) was added, followed by centrifugation at 13400 rpm for 5 min. The supernatant was used for further analysis by HPLCMS/PDA analysis to determine the release of doxorubicin.

Cc1nnc(C)nn1 [tetrazine 8, 3,6-dimethyl-1,2,4,5-tetrazine]
release of the bead-bound radioactivity [1]: 37% | Doxorubicin release (%) from Axial-TCO-1-Doxorubicin, PBS/MeCN (3/1) [2]: 79 ± 3% | Doxorubicin release (%) from Axial-TCO-1-Doxorubicin, Serum [3]: 75 ± 4%
